The term EC50 denotes the concentration giving half of the maximal effect. For orientation: Ki means the equilibrium dissociation constant of an inhibitor or competing ligand from its target. Low values mean higher affinity, high ones lower affinity.

The values that follow come from patent US6632816B1, “Aromatic derivatives as HIV aspartyl protease inhibitors” (Pharmacor Inc., priority 2002, dated 2003).

Molecules are shown by their SMILES. Where two headings read alike, the source gives them in different places.

For assay [1], the system named is HIV-1 laboratory viral strain NL4.3 (wild type virus). The assay is described as follows: Anti-viral assay in vitro (MTT, infected MT-4 cells). The format is cell-based. The conditions noted are these: Human immunodeficiency virus 1, MT4, 144 h. As for the experimental part:
Anti-viral and Cytotoxicity Assays In Vitro
To evaluate the EC50 of our compounds, various drug concentrations are incubated with the infected cell for six days and then the metabolic activity of the cells is monitored by the MTT assay. (See A. J. Japour et al, Antimicrobial Agents and Chemotherapy, 37, 1095-1101, 1993 and R. Pauwels et al. Journal of Virological Methods, 20, 309-321, 1988)
We use the laboratory viral strain NL4.3 as wild type virus and the cell line used is MT-4 which is a T-cell line highly sensitive to HIV-1. We also use some WT clinical strains. To address the resistance issue we assay the inhibitors with NL4.3 mutants which are designed to be resistant to specific commercially,available inhibitors

Another assay addresses HIV protease (Human immunodeficiency virus type 1 group M subtype B, UniProt P04585). The assay is described as follows: biochemical.
Setting [2] is: MT-4 cells infected with NL4.3, six days, MTT assay, read-out: EC50.

Description for HIV protease: Enzymatic Assay for Determining the Inhibition Constant (Ki) of Synthetic Compounds Targeting the HIV Protease
This is a fluorometric assay based on the cleavage by protease of a substrate carrying a donor group (EDANS) and an acceptor group (DABCYL) on each side of the cleavage site, interacting together through fluorescence resonance energy transfer (FRET) as described by Matayoshi et al. (Science 247:954-954, 1990).
After calculation of Vo and Vi, the inhibition constant (Ki) of the compound is determined using the equation of Henderson: [formula]
where Vo=the enzyme's initial velocity
Vi=the enzyme velocity in the presence of the inhibitory compound,
[I]=inhibitor concentration, [S]=substrate concentration,
Km=Michaelis-Menten constant and Kiapp=apparent Ki
Graphs are traced and the Ki determined using GraphPad Prism software v.

Take `CC(C)CN([C@H](CO)CCCCNC(=O)[C@H](Cc1ccc2ccccc2c1)NC(=O)N1CCOCC1)S(=O)(=O)c1ccc(N)cc1` [Example 33, (1S,5S)-Morpholine-4-carboxylic Acid (1-{5-[(4-Amino-benzenesulfonyl)-isobutyl-amino]-6-hydroxy-hexylcarbamoyl}-2-naphthalen-2-yl-ethyl)-amide]: in assay [1] (setting [2]), the concentration for a half-maximal effect (EC50) came to 92 nM. For the same molecule, the inhibition constant Ki at HIV protease came out at 0.8 nM.

Turning to `COC(=O)N[C@H](C(=O)NCCCC[C@@H](CO)N(CC(C)C)S(=O)(=O)c1ccc(N)cc1)C(c1ccccc1)c1ccccc1` [Example 34, (1S,5S)-(1-{5-[(4-Amino-benzenesulfonyl)-isobutyl-amino]-6-hydroxy-hexylcarbamoyl}-2,2-diphenyl-ethyl)-carbamic Acid Methyl Ester], the EC50 in assay [1] (setting [2]) worked out at 12 nM. The Ki at HIV protease amounted to 0.5 nM.

In turn, `COc1ccc(S(=O)(=O)N(CC(C)C)[C@H](CO)CCCCNC(=O)[C@H](Cc2ccc3ccccc3c2)NC(=O)N2CCOCC2)cc1` [Example 35, (1S,5S)-Morpholine-4-carboxylic Acid (1-{6-Hydroxy-5-[isobutyl-(4-methoxy-benzenesulfonyl)-amino]-hexylcarbamoyl}-2-naphthalen-2-yl-ethyl)-amide] showed a 50% effective concentration (EC50) in assay [1] of 275 nM. The same molecule showed a Ki on HIV protease of 1.3 nM.

For the molecule `COC(=O)N[C@@H](Cc1ccccc1-c1ccc(OC)cc1)C(=O)NCCCC[C@@H](CO)N(CC(C)C)S(=O)(=O)c1ccc(OC)cc1` [Example 36, (1S,5S)-[1-{6-Hydroxy-5-[isobutyl-(4-methoxy-benzenesulfonyl)-amino]-hexylcarbamoyl}-2-(4′-methoxy-biphenyl-2-yl)-ethyl]-carbamic Acid Methyl Ester], in assay [1], the EC50 stood at 2180 nM. This molecule had an inhibition constant Ki on HIV protease of 3.2 nM.

Consider `CC(C)CN(C(CO)CCCCNC(=O)C(Cc1ccc2ccccc2c1)NC(=O)C1CCOC1)S(=O)(=O)c1ccc(N)cc1` [Example 37, (1S,3R,S,5S)-Tetrahydro-furan-3-carboxylic Acid (1-{5-[(4-Amino-benzenesulfonyl)-isobutyl-amino]-6-hydroxy-hexylcarbamoyl}-2-naphthalen-2-yl-ethyl)-amide], for which the half-maximal effective concentration (EC50) in assay [1] (setting [2]) worked out at 325 nM. Also, the Ki at HIV protease was determined as 2.7 nM.

In the case of `COc1ccc(-c2ccccc2C[C@H](NC(=O)N2CCOCC2)C(=O)NCCCC[C@@H](CO)N(CC(C)C)S(=O)(=O)c2ccc(N)cc2)cc1` [Example 38, (1S,5S)-Morpholine-4-carboxylic Acid [1-{5-[(4-Amino-benzenesulfonyl)-isobutyl-amino]-6-hydroxy-hexylcarbamoyl}-2-(4′-methoxy-biphenyl-2-yl)-ethyl]-amide], in assay [1] (setting [2]), the EC50 was 93 nM. Also, the Ki on HIV protease was found to be 0.533 nM.

For the molecule `COC(=O)N[C@@H](Cc1ccccc1-c1ccccc1)C(=O)NCCCC[C@@H](CO)N(CC(C)C)S(=O)(=O)c1ccc(N)cc1` [Example 39, (1S,5S)-(1-{5-[(4-Amino-benzenesulfonyl)-isobutyl-amino]-6-hydroxy-hexylcarbamoyl}-2-biphenyl-2-yl-ethyl)-carbamic Acid Methyl Ester], the concentration giving a half-maximal response (EC50) in assay [1] (setting [2]) was 200 nM. This molecule showed an inhibition constant (Ki) on HIV protease of 0.521 nM.

Consider `CC(C)CN([C@H](CO)CCCCNC(=O)[C@@H](NC(=O)N1CCOCC1)C(c1ccccc1)c1ccccc1)S(=O)(=O)c1ccc(N)cc1` [Example 40, (1S,5S)-Morpholine-4-carboxylic Acid (1-{5-[(4-Amino-benzenesulfonyl)-isobutyl-amino]-6-hydroxy-hexylcarbamoyl}-2,2-diphenyl-ethyl)-amide], for which the concentration for a half-maximal effect (EC50) in assay [1] (setting [2]) was found to be 78 nM. The same molecule registered a Ki on HIV protease of 0.512 nM.

For the molecule `CC(C)CN([C@H](CO)CCCCNC(=O)[C@H](Cc1ccc2ccccc2c1)NC(=O)N(C)C)S(=O)(=O)c1ccc(N)cc1` [Example 41, (2S,5S)-N-{5-[(4-Amino-benzenesulfonyl)-isobutyl-amino]-6-hydroxy-hexyl}-2-(3,3-dimethyl-ureido)-3-naphthalen-2-yl-propionamide], in assay [1] (setting [2]), the EC50 is 79 nM. At HIV protease, this molecule showed an inhibition constant Ki of 1.1 nM.

Regarding `CC(C)CN([C@H](CO)CCCCNC(=O)[C@H](Cc1ccccc1-c1ccccc1)NC(=O)N1CCOCC1)S(=O)(=O)c1ccc(N)cc1` [Example 43, (1S,5S)-Morpholine-4-carboxylic Acid (1-{5-[(4-Amino-benzenesulfonyl)-isobutyl-amino]-6-hydroxy-hexylcarbamoyl}-2-biphenyl-2-yl-ethyl)-amide], the EC50 in assay [1] (setting [2]) worked out at 697 nM. This molecule also gave a Ki on HIV protease of 0.598 nM.

Take `CC(C)CN([C@H](CO)CCCCNC(=O)[C@H](Cc1cccc2ccccc12)NC(=O)N1CCOCC1)S(=O)(=O)c1ccc(N)c(Cl)c1` [Example 44, (1S,5S)-Morpholine-4-carboxylic Acid (1-{5-[(4-Amino-3-chloro-benzenesulfonyl)-isobutyl-amino]-6-hydroxy-hexylcarbamoyl}-2-naphthalen-1-yl-ethyl)-amide]: in assay [1] (setting [2]), the half-maximal effective concentration (EC50) was 134 nM. Also, on HIV protease, the Ki came out at 0.904 nM.

For the molecule `COc1ccc(S(=O)(=O)N(CC(C)C)[C@H](CO)CCCCNC(=O)[C@H](Cc2cccc3ccccc23)NC(=O)N2CCOCC2)cc1` [Example 45, (1S,5S)-Morpholine-4-carboxylic Acid (1-{6-Hydroxy-5-[isobutyl-(4-methoxy-benzenesulfonyl)-amino]-hexylcarbamoyl}-2-naphthalen-1-yl-ethyl)-amide], the EC50 in assay [1] (setting [2]) was 597 nM. Moreover, at HIV protease, the Ki was 1.5 nM.

For `CC(C)CN([C@H](CO)CCCCNC(=O)[C@H](Cc1ccc2ccccc2c1)NC(=O)C(C)(C)C)S(=O)(=O)c1ccc(N)cc1` [Example 46, (1S,5S)-N-(1-{5-[(4-Amino-benzenesulfonyl)-isobutyl-amino]-6-hydroxy-hexylcarbamoyl}-2-naphthalen-2-yl-ethyl)-2,2-dimethyl-propionamide], in assay [1] (setting [2]), the concentration for a half-maximal effect (EC50) is 167 nM. At HIV protease, this molecule displayed a Ki of 0.809 nM.

On to `CC(C)CN([C@H](CO)CCCCNC(=O)[C@H](Cc1ccc2ccccc2c1)NC(=O)C1CC1)S(=O)(=O)c1ccc(N)cc1` [Example 47, (1S,5S)-Cyclopropanecarboxylic Acid (1-{5-[(4-Amino-benzenesulfonyl)-isobutyl-amino]-6-hydroxy-hexylcarbamoyl}-2-naphthalen-2-yl-ethyl)-amide], for which the EC50 in assay [1] (setting [2]) came out at 323 nM. This molecule registered a Ki at HIV protease of 1.4 nM.

Turning to `CC(=O)N[C@@H](Cc1ccc2ccccc2c1)C(=O)NCCCC[C@@H](CO)N(CC(C)C)S(=O)(=O)c1ccc(N)cc1` [Example 48, (2S,5S)-2-Acetylamino-N-{5-[(4-amino-benzenesulfonyl)-isobutyl-amino]-6-hydroxy-hexyl}-3-naphthalen-2-yl-propionamide], in assay [1] (setting [2]), the 50% effective concentration (EC50) came to 948 nM. This molecule registered an inhibitory constant (Ki) on HIV protease of 3.6 nM.

For the molecule `COC(=O)N[C@H](C(=O)NCCCC[C@@H](CO)N(CC(C)C)S(=O)(=O)c1ccc(N)c(Cl)c1)C(c1ccccc1)c1ccccc1` [Example 50, (1S,5S)-(1-{5-[(4-Amino-3-chloro-benzenesulfonyl)-isobutyl-amino]-6-hydroxy-hexylcarbamoyl}-2,2-diphenyl-ethyl)-carbamic Acid Methyl Ester], the concentration for a half-maximal effect (EC50) in assay [1] (setting [2]) was 95 nM. For the same molecule, at HIV protease, the affinity corresponds to a Ki of 0.776 nM.

Regarding `CC(C)CN([C@H](CO)CCCCNC(=O)[C@H](Cc1ccc2ccccc2c1)NC(=O)N1CCOCC1)S(=O)(=O)c1ccc(N)c(Cl)c1` [Example 51, (1S,5S)-Morpholine-4-carboxylic Acid (1-{5-[(4-Amino-3-chloro-benzenesulfonyl)-isobutyl-amino]-6-hydroxy-hexylcarbamoyl}-2-naphthalen-2-yl-ethyl)-amide], in assay [1] (setting [2]), the EC50 amounted to 194 nM. On HIV protease, this molecule yielded a Ki of 0.8 nM.

Turning to `COC(=O)N[C@@H](Cc1ccccc1-c1cccc(F)c1)C(=O)NCCCC[C@@H](CO)N(CC(C)C)S(=O)(=O)c1ccc(N)cc1` [Example 52, (1S,5S)-[1-{5-[(4-Amino-benzenesulfonyl)-isobutyl-amino]-6-hydroxy-hexylcarbamoyl}-2-(3′-fluoro-biphenyl-2-yl)-ethyl]-carbamic Acid Methyl Ester], the EC50 in assay [1] (setting [2]) was 152 nM. Further, the Ki at HIV protease turned out to be 0.7 nM.

Regarding `CC(C)CN([C@H](CO)CCCCNC(=O)[C@H](Cc1cccc2ccccc12)NC(=O)N1CCOCC1)S(=O)(=O)c1ccc(F)c(N)c1` [Example 53, (1S,5S)-Morpholine-4-carboxylic Acid (1-{5-[(3-Amino-4-fluoro-benzenesulfonyl)-isobutyl-amino]-6-hydroxy-hexylcarbamoyl}-2-naphthalen-1-yl-ethyl)-amide], the EC50 in assay [1] (setting [2]) amounted to 40 nM. The affinity on HIV protease, expressed as Ki, was 0.626 nM.

For `CC(C)CN([C@H](CO)CCCCNC(=O)[C@H](Cc1ccc2ccccc2c1)NC(=O)c1cccnc1)S(=O)(=O)c1ccc(N)cc1` [Example 54, (1S,5S)-N-(1-{5-[(4-Amino-benzenesulfonyl)-isobutyl-amino]-6-hydroxy-hexylcarbamoyl}-2-naphthalen-2-yl-ethyl)-nicotinanide], the 50% effective concentration (EC50) in assay [1] (setting [2]) was found to be 146 nM. At HIV protease, this molecule displayed an inhibition constant Ki of 1.4 nM.

Turning to `CC(C)CN([C@H](CO)CCCCNC(=O)[C@H](Cc1ccc2ccccc2c1)NC(=O)c1ccncc1)S(=O)(=O)c1ccc(N)cc1` [Example 55, (1S,5S)-N-(1-{5-[(4-Amino-benzenesulfonyl)-isobutyl-amino]-6-hydroxy-hexylcarbamoyl}-2-naphthalen-2-yl-ethyl)-isonicotinamide], the EC50 in assay [1] (setting [2]) came to 110 nM. Also, the Ki at HIV protease was 1.3 nM.

Take `COC(=O)N[C@@H](Cc1ccccc1-c1cccc(F)c1)C(=O)NCCCC[C@@H](CO)N(CC(C)C)S(=O)(=O)c1ccc(F)c(N)c1` [Example 56, (1S,5S)-[1-{5-[(3-Amino-4-fluoro-benzenesulfonyl)-isobutyl-amino]-6-hydroxy-hexylcarbamoyl}-2-(3′-fluoro-biphenyl-2-yl)-ethyl]-carbamic Acid Methyl Ester]: in assay [1] (setting [2]), the half-maximal effective concentration (EC50) was found to be 300 nM. This molecule also showed an inhibition constant (Ki) on HIV protease of 1.3 nM.
